Data reported in the NIST ThermoML archive (doi:10.1016/j.tca.2017.12.013).

Assay: molar heat capacity at constant pressure
Conditions: 101.33 kPa, DSC

[Ag+].[Ag+].[S-2] [silver sulfide]
Conditions | molar heat capacity at constant pressure [J/K/mol]
617.82 K, Crystal 2 | 86.15
618.82 K, Crystal 2 | 86.13
619.82 K, Crystal 2 | 86.1
620.82 K, Crystal 2 | 86.08
621.82 K, Crystal 2 | 86.05
622.82 K, Crystal 2 | 86.03
623.82 K, Crystal 2 | 86.01
624.82 K, Crystal 2 | 85.99
625.82 K, Crystal 2 | 85.96
626.82 K, Crystal 2 | 85.94
627.82 K, Crystal 2 | 85.92
628.82 K, Crystal 2 | 85.9
629.82 K, Crystal 2 | 85.88
630.82 K, Crystal 2 | 85.86
631.82 K, Crystal 2 | 85.84
632.82 K, Crystal 2 | 85.82
633.82 K, Crystal 2 | 85.8
634.82 K, Crystal 2 | 85.78
635.82 K, Crystal 2 | 85.76
636.82 K, Crystal 2 | 85.74
637.82 K, Crystal 2 | 85.73
638.82 K, Crystal 2 | 85.71
639.82 K, Crystal 2 | 85.7
640.82 K, Crystal 2 | 85.7
641.82 K, Crystal 2 | 85.69
642.82 K, Crystal 2 | 85.67
643.82 K, Crystal 2 | 85.66
644.82 K, Crystal 2 | 85.65
645.82 K, Crystal 2 | 85.64
646.82 K, Crystal 2 | 85.62
647.82 K, Crystal 2 | 85.62
648.82 K, Crystal 2 | 85.61
649.82 K, Crystal 2 | 85.6
650.82 K, Crystal 2 | 85.59
651.82 K, Crystal 2 | 85.57
652.82 K, Crystal 2 | 85.57
653.82 K, Crystal 2 | 85.57
654.82 K, Crystal 2 | 85.57
655.82 K, Crystal 2 | 85.56
656.82 K, Crystal 2 | 85.56
657.82 K, Crystal 2 | 85.56
658.82 K, Crystal 2 | 85.56
659.82 K, Crystal 2 | 85.57
660.82 K, Crystal 2 | 85.56
661.82 K, Crystal 2 | 85.56
662.82 K, Crystal 2 | 85.57
663.82 K, Crystal 2 | 85.57
664.82 K, Crystal 2 | 85.57
665.82 K, Crystal 2 | 85.57
666.82 K, Crystal 2 | 85.57
667.82 K, Crystal 2 | 85.57
668.82 K, Crystal 2 | 85.57
669.82 K, Crystal 2 | 85.58
670.82 K, Crystal 2 | 85.59
671.82 K, Crystal 2 | 85.6
672.82 K, Crystal 2 | 85.61
673.82 K, Crystal 2 | 85.62
674.82 K, Crystal 2 | 85.63
675.82 K, Crystal 2 | 85.64
676.82 K, Crystal 2 | 85.66
677.82 K, Crystal 2 | 85.67
678.82 K, Crystal 2 | 85.69
679.82 K, Crystal 2 | 85.7
680.82 K, Crystal 2 | 85.72
681.82 K, Crystal 2 | 85.74
682.82 K, Crystal 2 | 85.75
683.82 K, Crystal 2 | 85.77
684.82 K, Crystal 2 | 85.79
685.82 K, Crystal 2 | 85.81
686.82 K, Crystal 2 | 85.83
687.82 K, Crystal 2 | 85.85
688.82 K, Crystal 2 | 85.87
689.82 K, Crystal 2 | 85.89
690.82 K, Crystal 2 | 85.92
691.82 K, Crystal 2 | 85.94
692.82 K, Crystal 2 | 85.96
693.82 K, Crystal 2 | 85.99
694.82 K, Crystal 2 | 86.01
695.82 K, Crystal 2 | 86.04
696.82 K, Crystal 2 | 86.06
697.82 K, Crystal 2 | 86.09
698.82 K, Crystal 2 | 86.12
699.82 K, Crystal 2 | 86.14
700.82 K, Crystal 2 | 86.04
701.82 K, Crystal 2 | 86.05
702.82 K, Crystal 2 | 86.06
703.82 K, Crystal 2 | 86.07
704.82 K, Crystal 2 | 86.08
705.82 K, Crystal 2 | 86.09
706.82 K, Crystal 2 | 86.1
707.82 K, Crystal 2 | 86.11
708.82 K, Crystal 2 | 86.12
709.82 K, Crystal 2 | 86.13
710.82 K, Crystal 2 | 86.14
711.82 K, Crystal 2 | 86.15
712.82 K, Crystal 2 | 86.16
713.82 K, Crystal 2 | 86.17
714.82 K, Crystal 2 | 86.18
715.82 K, Crystal 2 | 86.19
716.82 K, Crystal 2 | 86.2
717.82 K, Crystal 2 | 86.21
718.82 K, Crystal 2 | 86.22
719.82 K, Crystal 2 | 86.23
720.82 K, Crystal 2 | 86.24
721.82 K, Crystal 2 | 86.25
722.82 K, Crystal 2 | 86.26
723.82 K, Crystal 2 | 86.26
724.82 K, Crystal 2 | 86.27
725.82 K, Crystal 2 | 86.28
726.82 K, Crystal 2 | 86.29
727.82 K, Crystal 2 | 86.3
728.82 K, Crystal 2 | 86.3
729.82 K, Crystal 2 | 86.31
730.82 K, Crystal 2 | 86.32
731.82 K, Crystal 2 | 86.32
732.82 K, Crystal 2 | 86.33
733.82 K, Crystal 2 | 86.33
734.82 K, Crystal 2 | 86.34
735.82 K, Crystal 2 | 86.34
736.82 K, Crystal 2 | 86.35
737.82 K, Crystal 2 | 86.35
738.82 K, Crystal 2 | 86.35
739.82 K, Crystal 2 | 86.35
740.82 K, Crystal 2 | 86.36
741.82 K, Crystal 2 | 86.36
742.82 K, Crystal 2 | 86.36
743.82 K, Crystal 2 | 86.36
744.82 K, Crystal 2 | 86.36
745.82 K, Crystal 2 | 86.36
746.82 K, Crystal 2 | 86.35
747.82 K, Crystal 2 | 86.35
748.82 K, Crystal 2 | 86.35
749.82 K, Crystal 2 | 86.35
750.82 K, Crystal 2 | 86.34
751.82 K, Crystal 2 | 86.34
752.82 K, Crystal 2 | 86.33
753.82 K, Crystal 2 | 86.33
754.82 K, Crystal 2 | 86.32
755.82 K, Crystal 2 | 86.31
756.82 K, Crystal 2 | 86.31
757.82 K, Crystal 2 | 86.3
758.82 K, Crystal 2 | 86.29
759.82 K, Crystal 2 | 86.28
760.82 K, Crystal 2 | 86.27
761.82 K, Crystal 2 | 86.27
762.82 K, Crystal 2 | 86.26
763.82 K, Crystal 2 | 86.25
764.82 K, Crystal 2 | 86.24
765.82 K, Crystal 2 | 86.23
766.82 K, Crystal 2 | 86.21
767.82 K, Crystal 2 | 86.2
768.82 K, Crystal 2 | 86.19
769.82 K, Crystal 2 | 86.18
770.82 K, Crystal 2 | 86.17
771.82 K, Crystal 2 | 86.16
772.82 K, Crystal 2 | 86.14
773.82 K, Crystal 2 | 86.13
774.82 K, Crystal 2 | 86.12
775.82 K, Crystal 2 | 86.11
776.82 K, Crystal 2 | 86.1
777.82 K, Crystal 2 | 86.08
778.82 K, Crystal 2 | 86.07
779.82 K, Crystal 2 | 86.06
780.82 K, Crystal 2 | 86.05
781.82 K, Crystal 2 | 86.04
782.82 K, Crystal 2 | 86.02
783.82 K, Crystal 2 | 86.01
784.82 K, Crystal 2 | 86
785.82 K, Crystal 2 | 85.99
786.82 K, Crystal 2 | 85.98
787.82 K, Crystal 2 | 85.97
788.82 K, Crystal 2 | 85.96
789.82 K, Crystal 2 | 85.95
790.82 K, Crystal 2 | 85.95
791.82 K, Crystal 2 | 85.94
792.82 K, Crystal 2 | 85.93
793.82 K, Crystal 2 | 85.93
794.82 K, Crystal 2 | 85.92
795.82 K, Crystal 2 | 85.92
796.82 K, Crystal 2 | 85.91
797.82 K, Crystal 2 | 85.91
798.82 K, Crystal 2 | 85.91
799.82 K, Crystal 2 | 85.9
800.82 K, Crystal 2 | 85.91
801.82 K, Crystal 2 | 85.92
802.82 K, Crystal 2 | 85.93
803.82 K, Crystal 2 | 85.94
804.82 K, Crystal 2 | 85.95
805.82 K, Crystal 2 | 85.96
806.82 K, Crystal 2 | 85.97
807.82 K, Crystal 2 | 85.98
808.82 K, Crystal 2 | 85.99
809.82 K, Crystal 2 | 86
810.82 K, Crystal 2 | 86.01
811.82 K, Crystal 2 | 86.02
812.82 K, Crystal 2 | 86.03
813.82 K, Crystal 2 | 86.04
814.82 K, Crystal 2 | 86.05
815.82 K, Crystal 2 | 86.06
816.82 K, Crystal 2 | 86.07
817.82 K, Crystal 2 | 86.08
818.82 K, Crystal 2 | 86.09
819.82 K, Crystal 2 | 86.1
820.82 K, Crystal 2 | 86.11
821.82 K, Crystal 2 | 86.12
822.82 K, Crystal 2 | 86.13
823.82 K, Crystal 2 | 86.14
824.82 K, Crystal 2 | 86.15
825.82 K, Crystal 2 | 86.16
826.82 K, Crystal 2 | 86.17
827.82 K, Crystal 2 | 86.18
828.82 K, Crystal 2 | 86.19
829.82 K, Crystal 2 | 86.2
830.82 K, Crystal 2 | 86.21
831.82 K, Crystal 2 | 86.23
832.82 K, Crystal 2 | 86.24
833.82 K, Crystal 2 | 86.25
834.82 K, Crystal 2 | 86.26
835.82 K, Crystal 2 | 86.27
836.82 K, Crystal 2 | 86.28
837.82 K, Crystal 2 | 86.29
838.82 K, Crystal 2 | 86.3
839.82 K, Crystal 2 | 86.31
840.82 K, Crystal 2 | 86.32
841.82 K, Crystal 2 | 86.33
842.82 K, Crystal 2 | 86.34
843.82 K, Crystal 2 | 86.35
844.82 K, Crystal 2 | 86.36
845.82 K, Crystal 2 | 86.37
846.82 K, Crystal 2 | 86.38
847.82 K, Crystal 2 | 86.39
848.82 K, Crystal 2 | 86.4
849.82 K, Crystal 2 | 86.41
866.21 K, Crystal 1 | 90.42
867.21 K, Crystal 1 | 88.01
868.11 K, Crystal 1 | 89.24
869.11 K, Crystal 1 | 88.03
870.11 K, Crystal 1 | 87.13
871.11 K, Crystal 1 | 86.12
872.11 K, Crystal 1 | 85.33
873.11 K, Crystal 1 | 85.06
874.11 K, Crystal 1 | 84.83
875.11 K, Crystal 1 | 84.62
876.11 K, Crystal 1 | 84.44
877.11 K, Crystal 1 | 84.28
878.11 K, Crystal 1 | 84.13
879.11 K, Crystal 1 | 83.93
880.11 K, Crystal 1 | 83.85
881.11 K, Crystal 1 | 83.77
882.11 K, Crystal 1 | 83.69
883.11 K, Crystal 1 | 83.62
884.11 K, Crystal 1 | 83.55
885.11 K, Crystal 1 | 83.48
886.11 K, Crystal 1 | 83.41
887.11 K, Crystal 1 | 83.34
888.11 K, Crystal 1 | 83.28
889.11 K, Crystal 1 | 83.22
890.11 K, Crystal 1 | 83.17
891.11 K, Crystal 1 | 83.11
892.11 K, Crystal 1 | 83.06
893.11 K, Crystal 1 | 83.01
894.11 K, Crystal 1 | 82.97
895.11 K, Crystal 1 | 82.92
896.11 K, Crystal 1 | 82.88
897.11 K, Crystal 1 | 82.85
898.11 K, Crystal 1 | 82.81
899.11 K, Crystal 1 | 82.78
900.11 K, Crystal 1 | 82.75
901.11 K, Crystal 1 | 82.69
902.11 K, Crystal 1 | 82.64
903.11 K, Crystal 1 | 82.59
904.11 K, Crystal 1 | 82.54
905.11 K, Crystal 1 | 82.49
906.11 K, Crystal 1 | 82.45
907.11 K, Crystal 1 | 82.41
908.11 K, Crystal 1 | 82.37
909.11 K, Crystal 1 | 82.34
910.11 K, Crystal 1 | 82.3
911.11 K, Crystal 1 | 82.27
912.11 K, Crystal 1 | 82.25
913.11 K, Crystal 1 | 82.22
914.11 K, Crystal 1 | 82.2
915.11 K, Crystal 1 | 82.18
916.11 K, Crystal 1 | 82.16
917.11 K, Crystal 1 | 82.15
918.11 K, Crystal 1 | 82.14
919.11 K, Crystal 1 | 82.13
920.11 K, Crystal 1 | 82.13
921.11 K, Crystal 1 | 82.12
922.11 K, Crystal 1 | 82.12
923.11 K, Crystal 1 | 82.12
924.11 K, Crystal 1 | 82.13
925.11 K, Crystal 1 | 82.14
926.11 K, Crystal 1 | 82.15
927.11 K, Crystal 1 | 82.16
928.11 K, Crystal 1 | 82.18
929.11 K, Crystal 1 | 82.2
930.11 K, Crystal 1 | 82.22
931.11 K, Crystal 1 | 82.23
932.11 K, Crystal 1 | 82.25
933.11 K, Crystal 1 | 82.26
934.11 K, Crystal 1 | 82.27
935.11 K, Crystal 1 | 82.29
936.11 K, Crystal 1 | 82.3
937.11 K, Crystal 1 | 82.31
938.11 K, Crystal 1 | 82.32
